The IC50 is the midpoint of a concentration-inhibition curve.

What all share (type): biochemical
One assay has as its target T1, PI3Kα (Homo sapiens, UniProt P42336).
T1 construct: gene PIK3CA; with Phosphatidylinositol 3-kinase regulatory subunit alpha
Put plainly: PI3K-Glo ADP detection kinase assay. The text has this: PI3K-Glo ADP detection kinase assay on PI3Kα

A further assay has as its target T2, ERK.
T2 construct: gene MAPK1; enzyme source and assay not described; ERK2 used only for docking
Put plainly: kinase activity profile; ERK assay not described. The text has this:
kinase activity profile; ERK assay not described on ERK

A further assay deals with T3, PI3Kδ (Homo sapiens, UniProt O00329).
T3 construct: gene PIK3CD; with Phosphatidylinositol 3-kinase regulatory subunit alpha
T3 sequence (O00329 whole entry): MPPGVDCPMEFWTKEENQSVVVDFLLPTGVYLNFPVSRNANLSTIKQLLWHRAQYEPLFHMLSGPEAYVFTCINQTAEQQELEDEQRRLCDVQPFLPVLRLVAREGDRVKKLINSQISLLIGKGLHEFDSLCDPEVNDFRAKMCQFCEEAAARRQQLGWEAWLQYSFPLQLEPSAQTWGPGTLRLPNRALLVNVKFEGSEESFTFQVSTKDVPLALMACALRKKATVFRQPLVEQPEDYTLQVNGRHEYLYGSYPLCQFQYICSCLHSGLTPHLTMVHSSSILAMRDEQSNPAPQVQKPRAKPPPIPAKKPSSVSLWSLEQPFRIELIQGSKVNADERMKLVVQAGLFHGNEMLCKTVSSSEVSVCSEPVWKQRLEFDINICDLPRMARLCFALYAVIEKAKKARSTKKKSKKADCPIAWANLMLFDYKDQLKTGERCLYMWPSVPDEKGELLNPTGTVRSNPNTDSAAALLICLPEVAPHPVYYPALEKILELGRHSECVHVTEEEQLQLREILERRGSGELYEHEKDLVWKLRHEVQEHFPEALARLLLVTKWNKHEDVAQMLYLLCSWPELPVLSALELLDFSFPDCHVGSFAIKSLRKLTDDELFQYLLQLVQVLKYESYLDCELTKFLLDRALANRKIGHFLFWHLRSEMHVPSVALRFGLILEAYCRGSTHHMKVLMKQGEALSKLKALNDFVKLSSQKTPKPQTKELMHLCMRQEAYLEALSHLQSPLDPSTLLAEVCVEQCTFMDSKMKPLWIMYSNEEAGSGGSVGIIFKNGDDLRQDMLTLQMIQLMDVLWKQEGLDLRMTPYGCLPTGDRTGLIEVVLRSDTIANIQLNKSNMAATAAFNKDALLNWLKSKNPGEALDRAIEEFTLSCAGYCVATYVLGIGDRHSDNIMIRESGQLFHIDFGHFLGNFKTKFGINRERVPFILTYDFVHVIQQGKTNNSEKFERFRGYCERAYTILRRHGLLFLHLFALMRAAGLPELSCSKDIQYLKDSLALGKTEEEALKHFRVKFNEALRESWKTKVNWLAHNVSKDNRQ
T3 sequence (P27986 2-724 partner): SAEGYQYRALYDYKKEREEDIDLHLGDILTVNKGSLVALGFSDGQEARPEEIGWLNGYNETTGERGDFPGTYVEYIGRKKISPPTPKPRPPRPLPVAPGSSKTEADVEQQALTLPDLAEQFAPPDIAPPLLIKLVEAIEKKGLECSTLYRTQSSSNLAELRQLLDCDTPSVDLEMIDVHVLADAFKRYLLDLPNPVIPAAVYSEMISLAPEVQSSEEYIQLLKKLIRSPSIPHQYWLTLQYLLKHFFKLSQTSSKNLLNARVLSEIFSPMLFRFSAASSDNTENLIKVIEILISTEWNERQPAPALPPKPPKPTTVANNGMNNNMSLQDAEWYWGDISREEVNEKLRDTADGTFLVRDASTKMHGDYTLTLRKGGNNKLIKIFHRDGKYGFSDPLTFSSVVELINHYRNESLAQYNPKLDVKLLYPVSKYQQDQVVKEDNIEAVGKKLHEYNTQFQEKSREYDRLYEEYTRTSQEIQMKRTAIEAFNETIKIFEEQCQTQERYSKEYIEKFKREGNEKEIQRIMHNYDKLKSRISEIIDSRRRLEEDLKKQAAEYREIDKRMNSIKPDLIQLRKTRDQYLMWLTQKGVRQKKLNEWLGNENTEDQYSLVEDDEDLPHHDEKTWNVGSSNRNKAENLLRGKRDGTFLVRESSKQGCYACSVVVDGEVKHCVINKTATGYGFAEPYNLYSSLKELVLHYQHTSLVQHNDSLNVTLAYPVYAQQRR
In words: PI3K-Glo ADP detection kinase assay. The text has this:
PI3K-Glo ADP detection kinase assay on PI3Kδ

A further assay concerns the target T4, PI3Kβ (Homo sapiens, UniProt P42338).
T4 construct: gene PIK3CB; with Phosphatidylinositol 3-kinase regulatory subunit alpha
In words: PI3K-Glo ADP detection kinase assay. An excerpt: PI3K-Glo ADP detection kinase assay on PI3Kβ

In the next assay the target is T5, PI3Kγ (Homo sapiens, UniProt P48736).
T5 construct: gene PIK3CG
T5 sequence (P48736 whole entry): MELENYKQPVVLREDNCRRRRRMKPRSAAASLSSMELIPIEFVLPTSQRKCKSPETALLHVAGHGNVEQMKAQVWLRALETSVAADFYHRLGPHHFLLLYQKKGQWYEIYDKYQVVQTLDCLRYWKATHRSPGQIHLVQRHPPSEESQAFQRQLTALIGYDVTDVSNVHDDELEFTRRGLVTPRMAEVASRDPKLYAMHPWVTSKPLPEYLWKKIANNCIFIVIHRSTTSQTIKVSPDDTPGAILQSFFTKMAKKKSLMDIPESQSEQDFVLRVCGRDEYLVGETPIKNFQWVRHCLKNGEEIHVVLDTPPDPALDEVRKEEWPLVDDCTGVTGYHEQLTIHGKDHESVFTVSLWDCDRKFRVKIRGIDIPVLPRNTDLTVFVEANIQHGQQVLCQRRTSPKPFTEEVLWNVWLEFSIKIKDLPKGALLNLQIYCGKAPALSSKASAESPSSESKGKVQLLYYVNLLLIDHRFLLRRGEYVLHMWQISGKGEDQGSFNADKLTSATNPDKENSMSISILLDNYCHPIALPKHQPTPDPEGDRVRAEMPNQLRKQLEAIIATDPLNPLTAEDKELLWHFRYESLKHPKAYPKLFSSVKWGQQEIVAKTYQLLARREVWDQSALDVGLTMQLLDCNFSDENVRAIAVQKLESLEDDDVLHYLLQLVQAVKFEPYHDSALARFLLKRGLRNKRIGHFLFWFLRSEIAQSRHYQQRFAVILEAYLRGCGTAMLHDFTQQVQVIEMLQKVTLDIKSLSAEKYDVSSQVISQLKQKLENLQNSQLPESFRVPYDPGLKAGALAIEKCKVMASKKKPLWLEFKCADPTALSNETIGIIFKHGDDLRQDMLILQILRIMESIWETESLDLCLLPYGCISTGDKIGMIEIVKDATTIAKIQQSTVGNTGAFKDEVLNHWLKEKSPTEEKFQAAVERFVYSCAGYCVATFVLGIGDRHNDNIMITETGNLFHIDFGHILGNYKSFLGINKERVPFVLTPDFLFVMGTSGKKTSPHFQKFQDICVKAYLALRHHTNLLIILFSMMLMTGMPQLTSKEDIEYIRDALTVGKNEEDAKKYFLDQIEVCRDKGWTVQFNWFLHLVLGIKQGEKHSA
In words: PI3K-Glo ADP detection kinase assay. The text has this: PI3K-Glo ADP detection kinase assay on PI3Kγ

T1 sequence (P42336 whole entry): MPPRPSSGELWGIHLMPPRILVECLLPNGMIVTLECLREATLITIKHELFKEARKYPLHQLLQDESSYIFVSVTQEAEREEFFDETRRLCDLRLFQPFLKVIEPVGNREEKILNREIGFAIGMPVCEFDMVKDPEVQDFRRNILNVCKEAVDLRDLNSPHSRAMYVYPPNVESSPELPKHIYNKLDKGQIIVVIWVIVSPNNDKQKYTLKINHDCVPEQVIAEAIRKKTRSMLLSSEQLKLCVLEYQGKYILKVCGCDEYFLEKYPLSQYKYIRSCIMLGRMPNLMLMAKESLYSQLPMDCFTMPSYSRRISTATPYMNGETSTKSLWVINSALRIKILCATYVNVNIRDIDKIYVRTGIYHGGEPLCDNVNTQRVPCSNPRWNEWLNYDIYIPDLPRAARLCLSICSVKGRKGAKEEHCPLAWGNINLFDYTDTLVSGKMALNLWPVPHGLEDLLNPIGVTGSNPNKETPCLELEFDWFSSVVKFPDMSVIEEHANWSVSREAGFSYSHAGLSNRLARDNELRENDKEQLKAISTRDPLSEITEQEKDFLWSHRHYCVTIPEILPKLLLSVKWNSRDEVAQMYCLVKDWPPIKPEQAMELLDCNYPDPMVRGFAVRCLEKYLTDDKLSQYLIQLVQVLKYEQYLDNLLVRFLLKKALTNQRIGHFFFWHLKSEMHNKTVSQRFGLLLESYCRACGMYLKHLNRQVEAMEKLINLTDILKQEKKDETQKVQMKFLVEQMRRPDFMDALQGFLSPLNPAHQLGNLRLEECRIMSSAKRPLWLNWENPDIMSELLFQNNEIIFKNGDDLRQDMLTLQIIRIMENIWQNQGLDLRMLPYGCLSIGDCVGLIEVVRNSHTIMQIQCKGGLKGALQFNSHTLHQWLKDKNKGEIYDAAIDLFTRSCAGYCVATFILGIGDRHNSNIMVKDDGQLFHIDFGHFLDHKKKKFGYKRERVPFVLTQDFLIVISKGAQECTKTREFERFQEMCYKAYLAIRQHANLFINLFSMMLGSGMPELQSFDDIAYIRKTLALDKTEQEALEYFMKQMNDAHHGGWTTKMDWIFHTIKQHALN
T1 sequence (P27986 2-724 partner): as the sequence (P27986 2-724 partner) above
T4 sequence (P42338 whole entry): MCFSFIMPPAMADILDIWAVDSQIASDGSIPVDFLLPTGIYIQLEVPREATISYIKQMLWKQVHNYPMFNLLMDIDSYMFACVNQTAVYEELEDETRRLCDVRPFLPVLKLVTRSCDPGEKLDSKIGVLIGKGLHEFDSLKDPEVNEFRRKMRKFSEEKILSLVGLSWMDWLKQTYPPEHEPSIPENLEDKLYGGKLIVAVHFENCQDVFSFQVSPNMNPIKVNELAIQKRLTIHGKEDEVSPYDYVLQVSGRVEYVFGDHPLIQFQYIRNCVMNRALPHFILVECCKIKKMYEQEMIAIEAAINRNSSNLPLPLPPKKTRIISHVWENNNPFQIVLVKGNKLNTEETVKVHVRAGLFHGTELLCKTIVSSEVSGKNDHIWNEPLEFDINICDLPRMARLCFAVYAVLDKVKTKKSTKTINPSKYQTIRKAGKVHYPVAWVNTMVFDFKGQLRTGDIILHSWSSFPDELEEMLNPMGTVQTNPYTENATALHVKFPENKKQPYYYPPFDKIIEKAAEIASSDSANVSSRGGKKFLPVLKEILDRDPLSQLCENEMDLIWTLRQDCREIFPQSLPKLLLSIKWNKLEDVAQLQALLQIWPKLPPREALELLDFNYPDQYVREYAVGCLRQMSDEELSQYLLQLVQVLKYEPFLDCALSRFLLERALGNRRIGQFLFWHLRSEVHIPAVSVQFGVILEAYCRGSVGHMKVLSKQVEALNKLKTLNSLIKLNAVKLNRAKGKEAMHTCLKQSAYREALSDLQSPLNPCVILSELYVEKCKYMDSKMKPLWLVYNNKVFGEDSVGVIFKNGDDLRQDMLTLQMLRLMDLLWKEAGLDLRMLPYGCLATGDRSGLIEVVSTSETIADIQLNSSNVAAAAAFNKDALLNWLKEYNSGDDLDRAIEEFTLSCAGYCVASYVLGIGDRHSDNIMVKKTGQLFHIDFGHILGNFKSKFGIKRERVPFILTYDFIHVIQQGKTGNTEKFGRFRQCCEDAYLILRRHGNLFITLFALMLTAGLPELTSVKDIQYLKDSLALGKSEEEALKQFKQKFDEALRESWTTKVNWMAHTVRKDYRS
T4 sequence (P27986 2-724 partner): as the sequence (P27986 2-724 partner) above

With `COc1ncc(-c2ccc(NC(=O)/C=C/c3cccnc3)c(-n3ccnc3)c2)cc1NS(C)(=O)=O` [CK-3], the IC50 is 6.71 µM against PI3Kα; 5.67 µM at ERK; 4.67 µM at PI3Kδ; > 10 µM against PI3Kβ; > 10 µM against PI3Kγ.

These data come from PMC8355706, “CK-3, A Novel Methsulfonyl Pyridine Derivative, Suppresses Hepatocellular Carcinoma Proliferation and Invasion by Blocking the PI3K/AKT/mTOR and MAPK/ERK Pathways” (Frontiers in Oncology, 2021).
